# Data taken from ChEMBL document CHEMBL1147369, “Novel Diterpenoids from Taxus chinensis” (J Nat Prod, 1993).
# Assay: Inhibition of tubulin microtubule disassembly
row,ID50 [µM],SMILES
1,0.29,CC(=O)O[C@H]1C(=O)[C@@]2(C)[C@H]([C@H](OC(=O)c3ccccc3)[C@]3(O)C[C@H](OC(=O)[C@H](O)[C@@H](NC(=O)c4ccccc4)c4ccccc4)C(C)=C1C3(C)C)[C@]1(OC(C)=O)CO[C@@H]1C[C@@H]2O
2,> 100,CC(=O)O[C@@]12CO[C@@H]1C[C@@H](O)[C@@]1(C)C(=O)C(=O)C3=C(C)[C@@H](O)C[C@@](O)([C@@H](OC(=O)c4ccccc4)[C@H]21)C3(C)C
3,> 100,CC(=O)O[C@H]1C[C@]2(C(C)(C)O)C(=C1C)[C@@H](OC(=O)c1ccccc1)[C@H](OC(=O)c1ccccc1)[C@]1(C)[C@@H](OC(C)=O)C[C@H]3OC[C@@]3(OC(C)=O)[C@H]1[C@@H]2OC(=O)c1ccccc1
4,> 100,CC(=O)O[C@H]1C[C@H]2OC[C@@]2(OC(C)=O)[C@H]2[C@H](OC(C)=O)[C@]3(C(C)(C)O)C[C@H](OC(=O)/C=C/c4ccccc4)C(C)=C3[C@@H](OC(=O)c3ccccc3)[C@H](OC(C)=O)[C@]12C
5,> 100,C=C1[C@@H](O)C[C@H](OC(C)=O)[C@@]2(C)[C@@H](OC(C)=O)[C@H](OC(=O)c3ccccc3)C3=C(C)[C@@H](O)C[C@@]3(C(C)(C)O)[C@@H](OC(C)=O)[C@H]12
6,> 100,CC(=O)O[C@H]1C(=O)[C@]2(CO)[C@H](O)C[C@H]3OC[C@@]3(OC(C)=O)[C@H]2[C@H](OC(=O)c2ccccc2)[C@]2(O)C[C@H](O)C(C)=C1C2(C)C
